Literature values in publication PMC10288581 (Frontiers in Pharmacology, 2023).
Like-named read-outs stand apart in the source and are kept apart here.

Conditions: cited from earlier work
[1] = increased, exact percentage not reported, ref Bouatou et al. (2014)
[2] = increased, exact percentage not reported, ref Yasu et al. (2016)
[3] = ref Kakuda et al., (2013), Calcagno et al., (2014)
[4] = increased, exact percentage not reported, ref Motta et al. (2016)
[5] = increased, exact percentage not reported, ref Heinz et al. (2007)

COc1ccc2nc([S@@+]([O-])Cc3ncc(C)c(OC)c3C)[nH]c2c1 [Esomeprazole]
↑AUC of voriconazole (increase by effector drug) [1]: ↑ ^NR*
↑Cmax of voriconazole (increase by effector drug) [1]: ↑ ^NR*

Cc1c(OCC(F)(F)F)ccnc1C[S+]([O-])c1nc2ccccc2[nH]1 (centres unmarked) [Lanoprazole]
↑AUC of voriconazole (increase by effector drug) [2]: ↑ ^NR*
↑Cmax of voriconazole (increase by effector drug) [2]: ↑ ^NR*

CNC(=C[N+](=O)[O-])NCCSCc1ccc(CN(C)C)o1 [Ranitidine]
↑AUC of voriconazole (increase by effector drug) (ref Purkins et al. (2003b)): *↑4%
↑Cmax of voriconazole (increase by effector drug) (ref Purkins et al. (2003b)): *↑3.5%

Cc1cc(C#N)cc(C)c1Oc1nc(Nc2ccc(C#N)cc2)nc(N)c1Br [Etravirine]
↑AUC of voriconazole (increase by effector drug) [3]: *↑14%
↑Cmax of voriconazole (increase by effector drug) [3]: *↑23%

CC[C@H]1OC(=O)[C@H](C)[C@@H](O[C@H]2C[C@@](C)(OC)[C@@H](O)[C@H](C)O2)[C@H](C)[C@@H](O[C@@H]2O[C@H](C)C[C@H](N(C)C)[C@H]2O)[C@](C)(O)C[C@@H](C)CN(C)[C@H](C)[C@@H](O)[C@]1(C)O [Azithromycin]
↑AUC of voriconazole (increase by effector drug) (ref Purkins et al. (2003d)): *↑8%
↑Cmax of voriconazole (increase by effector drug) (ref Purkins et al. (2003d)): *↑18%

CC[C@H]1OC(=O)[C@H](C)[C@@H](O[C@H]2C[C@@](C)(OC)[C@@H](O)[C@H](C)O2)[C@H](C)[C@@H](O[C@@H]2O[C@H](C)C[C@H](N(C)C)[C@H]2O)[C@](C)(O)C[C@@H](C)C(=O)[C@H](C)[C@@H](O)[C@]1(C)O [Erythromycin]
↑AUC of voriconazole (increase by effector drug) (ref Purkins et al. (2003d)): *↑1%
↑Cmax of voriconazole (increase by effector drug) (ref Purkins et al. (2003d)): *↑8%

O=C(CCCN1CCC(O)(c2ccc(Cl)cc2)CC1)c1ccc(F)cc1 [Haloperidol]
↑AUC of voriconazole (increase by effector drug) [4]: ↑ ^NR*
↑Cmax of voriconazole (increase by effector drug) [4]: ↑ ^NR*

CN/C(=N/CCSCc1nc[nH]c1C)NC#N [Cimetidine]
↑AUC of voriconazole (increase by effector drug) (ref Purkins et al. (2003b)): *↑22.5%
↑Cmax of voriconazole (increase by effector drug) (ref Purkins et al. (2003b)): *↑18.5%

COc1ccc2[nH]c([S+]([O-])Cc3ncc(C)c(OC)c3C)nc2c1 (centres unmarked) [Omeprazole]
↑AUC of voriconazole (increase by effector drug) (ref Wood et al. (2003)): *↑41%
↑Cmax of voriconazole (increase by effector drug) (ref Wood et al. (2003)): *↑15%

COc1ccnc(C[S+]([O-])c2nc3ccc(OC(F)F)cc3[nH]2)c1OC (centres unmarked) [Pantoprazole]
↑AUC of voriconazole (increase by effector drug) [5]: ↑ ^NR*
↑Cmax of voriconazole (increase by effector drug) [5]: ↑ ^NR*
